The text below walks through data of patent US20100183692A1, “COMPOSITIONS” (priority 2007, published 2010).

Entries after “also recorded” stand apart in the source; their conditions may differ.

Common to all, as to type: cell-based
The subject of assay [1] is Aspergillus niger ATCC 16404 spores. Description: Sporicidal effect of a) and b) compounds in a cosmetic cream. Conditions: for Reduction factor: cosmetic cream. The method, then: A preservative-free cosmetic cream for application to the human skin is used (Cremor basalis, Fagron GmbH, Barsbüttel, Germany).
Test samples of cream contain different amounts of compounds a) and b) added to an aliquot of 10 g of the cream in 50 ml tubes to give a concentration (w/w) of 0.125-0.25% as shown in the table below. After addition of the compounds a) and b), the cream is thoroughly mixed to achieve a homogeneous distribution.
After 1-3 days of equilibration of the cream (storage at room temperature to achieve a homogenous partitioning of compounds between oil and water phase), to each sample 100 μl of a spore suspension of Aspergillus niger ATCC 16404 containing 3×10^7 spores/ml (prepared as described in example 1) is added. After regular test intervals (7 days), samples of 1 g cream are removed and added to 20 ml of a neutralizer solution containing 0.2% lecithin, 2% Tween 80 and 0.5% NaCl. These dilutions are vigorously shaken for 10 min until the cream is dissolved, and then aliquots of this solution are spread plated on potato dextrose agar containing 0.2% Tween 80. After a sufficient time for colonies to grow (about 48 h), the number of colony forming units (and therefore surviving spores in the cream) are counted.

For assay [2], the system named is Staphylococcus aureus (DSMZ 799) and Pseudomonas aeruginosa (ATCC 15442), mixed 1:1. Description: Bactericidal effect of a) and b) compounds in a cosmetic cream. The method, then: Test samples of the same cream used in Example 2 contain different amounts of compounds a) and b) added to an aliquot of 10 g of the cream in 50 ml tubes to give a concentration (w/w) of 0.125-0.25% as shown in the table below. After addition of the compounds a) and b), the cream is thoroughly mixed to achieve a homogeneous distribution.
As test organisms Staphylococcus aureus (DSMZ 799) and Pseudomonas aeruginosa (ATCC 15442) are used. The strains are grown overnight in Mueller-Hinton broth and adjusted to a cell density of 1×10^8 cfu (colony forming units) per ml.
The two bacterial strains are mixed in a ratio of 1:1 and 100 μl of this mixed inoculum is added to 10 ml aliquots of the cosmetic cream.
The resulting mixtures are incubated at room temperature and at the regular intervals samples are removed, suspended in neutralizer solution and diluted as described above (example 2).
Aliquots of these suspended and diluted samples are plated on tryptic soy agar supplemented with 0.5% Tween 80 and then incubated for 24 h at 37° C. Surviving bacteria are counted.

The test system of assay [3] is Aspergillus niger ATCC 16404 spores. Put plainly: Sporicidal effect of test compounds in water. Conditions: for Spores/ml / Reduction factor: 0.1% test compound in water, after 7 days; for Reduction factor: count of negative control divided by count of test compound; for Reduction of spore counts / sporicidal effect in water (in words): 0.1% test compound, 7 days. On the procedure:
The reduction factor is determined by growing a suitable test organism (Aspergillus niger for fungi, Pseudomonas aeruginosa for gram-negative bacteria and Staphylococcus aureus for gram-positive bacteria) on a suitable culture medium on agar plates, harvesting and adding to a personal care product composition in a density of 3×10^5 organism/ml and counting the surviving organisms in the probe and a negative control at defined time interval, commonly 7 days. The count of the negative control is divided by the count of the probe and thereby the reduction factor is determined (compare example 1).
Aspergillus niger ATCC 16404 spores are added to water to obtain a density of 3×10^5 spores 1 ml. In order to prepare the spores, the test strain is grown for 5 days on potato dextrose agar at room temperature. The spores are harvested with a solution containing 0.1% Tween 80, peptone 0.1% and NaCl 0.85% and the spore concentration is adjusted to the density indicated above.
Test compounds are dissolved in dipropyleneglycol to a concentration of 20%.
These stock solutions are added to 10 ml aliquots of the spore suspension to obtain a final concentration of the test compounds of 0.1%. The sporicidal effect is shown by a reduction of spore counts after 7 days.
The reduction factor is determined as follows. Aliquots of the above prepared suspension of microorganisms (here: spore suspension prepared as described above) are plated on a suitable agar medium (see above) and the developing colonies are counted both for samples with test compound and for a negative probe (water). The count of the negative control is divided by the count of the test compound and thereby the reduction factor is determined. A negative control (water) accordingly has a reduction factor of 1 (no effect on the microorganism).

The mark [4] stands for this setting: fragrant acid (sodium salt) 0.125% w/w, 4-HBA 0, after 7 days.
The mark [5] stands for this setting: fragrant acid (sodium salt) 0.250% w/w, 4-HBA 0, after 7 days.
Where [6] appears, read: fragrant acid (sodium salt) 0.125% w/w, 4-HBA 0, after 24 h.
Setting [7] is: fragrant acid (sodium salt) 0.250% w/w, 4-HBA 0, after 24 h.

On to `COc1ccc(C(=O)O)cc1` [Anisic acid, anisic acid], for which the Reduction factor in assay [1] (setting [4]) came out at 1.4; in assay [1] (setting [5]), 12.5; in assay [2] (setting [6]) it was 1; in assay [2] (setting [7]), 5.
With `O=C(O)/C=C/c1ccccc1` [Cinnamic acid, cinnamic acid], the Reduction factor came out at 1.0 in assay [1] (setting [4]), 1.1 in assay [1] (setting [5]), 2.0 in assay [2] (setting [6]) and 10 in assay [2] (setting [7]).
Turning to `COc1ccc(C=O)cc1` [4-methoxy-benzaldehyde, 4-methoxybenzaldehyde], in assay [3], the Spores/ml is given as 4.68 × 10^4 Spores/ml, the Reduction factor is on record as 5 and the “Reduction of spore counts / sporicidal effect in water (in words)” value is “No significant reduction of spore counts”.
`O=Cc1ccc(O)cc1` [4-hydroxybenzaldehyde]: in assay [3], the Spores/ml is listed as >1.2 × 10^5 Spores/ml, the Reduction factor is less than 2 and the “Reduction of spore counts / sporicidal effect in water (in words)” value is “no significant sporicidal effect; also recorded: No significant reduction of spore counts”. Moreover, in assay [1] (combined with cinnamic acid or anisic acid in cream at 0.125% concentration, within 7 days), the “Sporicidal activity in cream (in words)” value is given as “complete killing of spores”. Moreover, the Reduction factor in assay [1] (no fragrant acid, 4-HBA 0.125% w/w, after 7 days) was found to be 5.5. This molecule had a Reduction factor in assay [2] (no fragrant acid, 4-HBA 0.125% w/w, bacterial counts after 24 h) of 10.
